How the values were obtained:
rat ATB^0,+ = molecular target: T1, rat ATB^0,+ (Rattus norvegicus, UniProt Q334I2); experiment: Substrate-induced inward currents in Xenopus oocytes expressing rat ATB0,+ (voltage clamp); format: cell-based; settings: 5 mM; voltage clamp
T1 sequence (Q334I2 1-640): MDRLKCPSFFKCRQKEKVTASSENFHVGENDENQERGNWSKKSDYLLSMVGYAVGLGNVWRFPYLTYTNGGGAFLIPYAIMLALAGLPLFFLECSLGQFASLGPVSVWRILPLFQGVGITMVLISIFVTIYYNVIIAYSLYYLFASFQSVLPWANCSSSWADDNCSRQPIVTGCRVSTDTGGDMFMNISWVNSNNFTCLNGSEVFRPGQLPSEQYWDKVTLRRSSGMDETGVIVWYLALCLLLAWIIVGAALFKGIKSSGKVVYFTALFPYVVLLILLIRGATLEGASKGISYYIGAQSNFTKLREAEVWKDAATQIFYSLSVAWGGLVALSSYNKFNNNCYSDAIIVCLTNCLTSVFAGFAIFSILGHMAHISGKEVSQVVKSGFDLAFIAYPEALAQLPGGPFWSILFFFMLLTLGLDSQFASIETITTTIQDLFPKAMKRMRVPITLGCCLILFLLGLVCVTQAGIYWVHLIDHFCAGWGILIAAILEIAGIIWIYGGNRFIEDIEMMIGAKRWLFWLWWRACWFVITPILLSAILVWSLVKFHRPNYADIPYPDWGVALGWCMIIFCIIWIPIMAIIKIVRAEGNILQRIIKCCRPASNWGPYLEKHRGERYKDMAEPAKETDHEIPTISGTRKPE
Description: Experiments with HRPE cells were repeated at least three times with three independent transfections and transport measurements made in duplicate in each experiment. Electrophysiological measurements of substrate-induced currents were repeated at least three times with separate oocytes. The data are presented as means±S.E.M. of these replicates. The kinetic parameters, Michaelis constant (Kt) and maximal velocity (Vmax) were calculated by fitting the ATB^0,+-specific transport data to the Michaelis-Menten equation describing a single saturable transport system. Na^+ and Cl^−-activation kinetics were analyzed by fitting the ATB^0,+-specific transport data to the Hill equation for the determination of K0.5 values for Na^+ and Cl^− (concentration of Na^+ and Cl^− necessary for half-maximal activation) and the Hill coefficient (nH; the number of Na^+ or Cl^− ions involved in the activation process). The kinetics parameters were first determined by non-linear regression methods and subsequently confirmed by linear regression methods using the commercially-available computer program SigmaPlot, version 6.0 (SPSS Inc., Chicago, Ill., US).
Therefore, it was necessary to determine whether or not the α-carboxyl esters of neutral amino acids are transportable substrates for ATB^0,+. For this purpose, we used the X. laevis oocyte expression system. Cloned rat ATB^0,+ was functionally expressed in oocytes by injection of corresponding cRNA, and the transport of substrates via the transporter was monitored by inward currents when the oocytes were exposed to putative substrates under voltage-clamp conditions.

HDAC = HDAC activity in a cell-free system with MCF7 cell lysate; format: biochemical, human
Description: Measurement of HDAC activity in a cell-free system: This was done using a commercially available assay kit (BioVision). MCF7 cell lysate was used as a source of HDAC activity. 50 μg of lysate protein was incubated with various monocarboxylates (1 mM), or trichostatin A (20 μM), and the reaction was initiated by the addition of HDAC substrate. The reaction was then terminated and the deacetylated product was measured according to the manufacturer's instructions. The activity is expressed in nmoles of deacetylated product formed per μg of MCF7 cell lysate protein per 30 min.

human SLC5A8 = molecular target: T2, human SLC5A8 (Homo sapiens, UniProt Q8N695, F251V/V193I); experiment: Uptake of radiolabeled short-chain fatty acids in Xenopus oocytes injected with SLC5A8 cRNA; format: cell-based; settings: 1 h incubation
T2 construct: We amplified the coding region of SLC5A8 mRNA by RT-PCR using human intestinal mRNA as the template; expressed in transfected cells; host or cells: Xenopus laevis oocytes, 50 ng capped cRNA from the pGH19 construct
T2 sequence (Q8N695 1-610 V193I/F251V): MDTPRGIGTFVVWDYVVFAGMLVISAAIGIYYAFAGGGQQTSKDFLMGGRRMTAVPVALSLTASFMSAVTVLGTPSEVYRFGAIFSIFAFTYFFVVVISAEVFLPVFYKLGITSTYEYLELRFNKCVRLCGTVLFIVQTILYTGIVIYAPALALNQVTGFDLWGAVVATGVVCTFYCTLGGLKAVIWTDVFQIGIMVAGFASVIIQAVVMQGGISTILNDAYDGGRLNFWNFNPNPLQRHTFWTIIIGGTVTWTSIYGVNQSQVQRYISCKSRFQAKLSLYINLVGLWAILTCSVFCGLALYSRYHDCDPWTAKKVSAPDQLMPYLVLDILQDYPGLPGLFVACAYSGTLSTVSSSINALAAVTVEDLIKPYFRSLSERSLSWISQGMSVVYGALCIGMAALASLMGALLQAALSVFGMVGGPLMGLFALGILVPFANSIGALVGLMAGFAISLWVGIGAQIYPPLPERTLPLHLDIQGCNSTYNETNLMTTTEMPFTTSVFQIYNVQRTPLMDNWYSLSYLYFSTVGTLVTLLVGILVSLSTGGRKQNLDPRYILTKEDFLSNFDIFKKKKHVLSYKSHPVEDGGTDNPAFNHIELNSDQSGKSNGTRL
Description: The amplified human SLC5A8 cDNA was expressed heterologously in Xenopus oocytes by cRNA injection. Capped cRNA from SLC5A8 cDNA was synthesized using the mMESSAGE mMACHINE kit (Ambion Inc., Austin, Tex.). Mature oocytes (stage 1V or V) from Xenopus laevis were injected with 50 ng cRNA. Uninjected oocytes served as controls. The oocytes were used for uptake and electrophysiological studies 3-6 days after cRNA injection. Uptake of radiolabeled substrates in uninjected and cRNA-injected oocytes was determined as described previously (Fei, Y. J., et al., (1995) Biochemistry 34, 8744-8751).
Eight oocytes were used for each uptake measurement. Electrophysiological studies were performed by the two-microelectrode voltage clamp method (11. Wang, H., Fei, et al., (2000) Am. J. Physiol. 278:C1019-C1030; Inoue, K, et al. (2004) Biochem. J. 378:949-957).
Uptake of short-chain fatty acids in uninjected oocytes and in oocytes injected with SLC5A8 cRNA was measured with 1 h incubation. Concentration of substrates (labeled plus unlabeled) varied in the range of 50-500 μM depending on the specific radioactivity of the substrates. Eight oocytes were used for each uptake measurement. Data represent means±SE.

CC(=O)O [acetate]
Inward currents induced in ATB0,+-expressing oocytes (in words) (rat ATB^0,+): did not induce detectable current
HDAC inhibition (in words) (HDAC): least potent
Fold increase of uptake (cRNA-injected over uninjected) (human SLC5A8): 1.8 fold
Uptake, cRNA-injected oocytes (human SLC5A8; SLC5A8 cRNA-injected oocytes): 0.059 ± 0.003
Uptake, uninjected oocytes (human SLC5A8; uninjected control oocytes): 0.032 ± 0.001
